Values of other authors, collected in patent US12268663B2, “Method for treating pruritus” (Pruvyc Pharma, LLC, priority 2020, dated 2025).

Key:
[1] = target: histamine H1 receptor (Homo sapiens, UniProt P35367)
[2] = target: serotonin S2 receptor (Homo sapiens, UniProt P28223)
[3] = tested on: connective tissue mast cells

Sequence of serotonin S2 receptor (P28223 whole entry): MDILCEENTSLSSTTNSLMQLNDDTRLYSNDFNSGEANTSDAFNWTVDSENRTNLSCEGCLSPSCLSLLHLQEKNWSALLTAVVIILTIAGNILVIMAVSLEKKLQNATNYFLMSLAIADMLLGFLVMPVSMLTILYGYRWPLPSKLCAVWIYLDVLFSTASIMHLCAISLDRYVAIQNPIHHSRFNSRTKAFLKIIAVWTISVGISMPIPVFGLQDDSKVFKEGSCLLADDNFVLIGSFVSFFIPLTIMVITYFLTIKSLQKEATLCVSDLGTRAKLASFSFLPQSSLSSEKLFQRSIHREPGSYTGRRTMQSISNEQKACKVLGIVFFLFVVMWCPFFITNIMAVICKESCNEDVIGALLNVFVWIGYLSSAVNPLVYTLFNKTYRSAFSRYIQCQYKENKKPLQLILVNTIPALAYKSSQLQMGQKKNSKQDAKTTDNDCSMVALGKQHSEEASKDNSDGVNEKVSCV
Sequence of histamine H1 receptor (P35367 whole entry): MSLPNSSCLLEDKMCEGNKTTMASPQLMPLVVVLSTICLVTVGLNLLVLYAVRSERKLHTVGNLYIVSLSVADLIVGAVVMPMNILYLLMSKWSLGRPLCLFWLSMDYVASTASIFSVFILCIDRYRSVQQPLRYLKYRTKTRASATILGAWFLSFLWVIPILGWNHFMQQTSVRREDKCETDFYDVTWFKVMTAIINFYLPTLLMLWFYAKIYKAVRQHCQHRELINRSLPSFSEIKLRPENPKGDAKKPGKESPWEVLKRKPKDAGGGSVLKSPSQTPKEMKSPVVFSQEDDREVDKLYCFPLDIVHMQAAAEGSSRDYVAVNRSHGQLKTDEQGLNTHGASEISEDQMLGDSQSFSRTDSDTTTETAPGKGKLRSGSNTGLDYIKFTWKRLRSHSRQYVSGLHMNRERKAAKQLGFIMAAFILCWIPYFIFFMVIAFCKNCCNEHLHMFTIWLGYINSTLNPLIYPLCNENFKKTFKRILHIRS

## CN(C)CC/C=C1/c2ccccc2COc2ccc(CC(=O)O)cc21 [Olopatadine, olopatadine]
[1]
  binding to histamine H1 receptor: bind
[2]
  binding to serotonin S2 receptor: bind
[3]
  allergic mediator release from connective tissue mast cells: inhibits allergic mediator release
